Among the data in patent US7935708B2, “Dihydropyrazolopyrimidinone derivatives” (MSD K.K., priority 2006, dated 2011) are EC50 values, retold here.

Structures are written as SMILES.

This test concerns Human colon cancer cells (WiDr). Briefly: Checkpoint escape effect in gemcitabine-treated WiDr cells (phosphorylated histone H3-positive cells). It counts as cell-based. The note with it: gemcitabine 100 nM 24 hours, then test compound with nocodazole 8 hours. An excerpt:
Pharmaceutical Text 3 (Method of Determining Drug Potency in Cells (Checkpoint-Removing Effect))
Fetal bovine serum (FBS) was obtained from Morgate; DMEM was from Invitrogen; gemcitabine was from Nippon Eli Lilly; nocodazole and 4′,6-diamidino-2-phenylindole were from Sigma; rabbit anti-phosphorylated histone H3 antibody was from Upstate; and fluorescence-labeled (Alexa Fluor 488) anti-rabbit IgG antibody was from Molecular Probe.
Human colon cancer cells (WiDr) were obtained from American Type Culture Collection (ATCC).
c) Method of Effect Determination:
The cells were suspended in DMEM containing 10% FBS, and the cell suspension was applied to a poly-D-lysine-coated 96-well plastic plate (bought from Becton Dickinson) in an amount of 2000 cells/100 μL/well, in which the cells were incubated overnight in 5% CO2-95% air at 37° C. Gemcitabine was dissolved in phosphate-buffered saline (PBS), and diluted with DMEM containing 10% FBS, and then this was applied to the plate on which the cells had been previously sowed, in an amount of 50 μL/well in such a manner that the final concentration of gemcitabine could be 100 nM. Then, the cells were incubated for 24 hours at 37° C. in 5% CO2-95% air. The test compound was stepwise diluted with dimethylsulfoxide, then diluted with 1200 nM nocodazole-containing DMEM containing 10% FBS, and applied to the plate on which the gemcitabine-treated cells had been sowed, in an amount of 50 μL/well. […] Next, this was washed with PBS, and a solution containing 4′,6-diamidino-2-phenylindole that had been diluted with 1% BSA/PBS to have a concentration 10 μg/mL and a fluorescence-labeled (Alexa Fluor 488) anti-rabbit IgG antibody that had been diluted 250-fold was added to it in an amount 50 μL/well, and reacted in a dark place at room temperature for 60 minutes. Finally, this was washed with PBS, and its fluorescence intensity was determined to calculate the ratio of the phosphorylated histone H3-positive cells (cells that had been in a cell division cycle through removal of checkpoint). […]

Consider `C=CCn1c(=O)c2cnc(Nc3ccc(N4CCN(C)CC4)c(CO)c3)nc2n1-c1ccsc1` [Example 3, 2-allyl-6-{[3-(hydroxymethyl)-4-(4-methylpiperazin-1-yl)phenyl]amino}-1-(3-thienyl)-1,2-dihydro-3H-pyrazolo[3,4-d]pyrimidin-3-one], for which the EC50 amounted to 268 nM.

On to `C=CCn1c(=O)c2cnc(Nc3ccc(N4CCN(C)CC4)cc3)nc2n1-c1cccc(N2CCN(C)C2=O)n1` [Example 148, 2-allyl-1-[6-(3-methyl-2-oxoimidazolidin-1-yl)pyridin-2-yl]-6-{[4-(4-methylpiperazin-1-yl)phenyl]amino}-1,2-dihydro-3H-pyrazolo[3,4-d]pyrimidin-3-one], for which the EC50 came out at 100 nM.
